# In patent publication US7453006B2, “Inositol derivatives for increasing chloride secretion and inhibiting inflammation” (Inologic, Inc., priority 2000, dated 2008):
# “Also recorded” adds a separate entry of the source.
# Key:
# [1] = macroscopic negative effects / side effects after ip and iv injection; type: in vivo, mouse; settings: several weeks after treatment
# [2] = test system: arachidonic acid-induced inflammation in mouse ears; experiment: arachidonic acid-induced inflammation in mouse ears; type: in vivo; settings: for Ear Thickness: 20 nanomoles/ear topical 30 min before arachidonic acid, measured 60 min after arachidonic acid, control 56.5 ± 1.57
# Description: Arachidonic Acid (Nu-Chek, Elysian, Minn. 56028); Indomethacin (stock=12.5 mg/mL acetone). Prednisolone (Sigma Chem, P6004) 20 mM dissolved in acetone; Animals: Female Balb/c mice (B&K laboratories) and Swiss-Webster hybrid (B& K Laboratory, Kent, Wash.)
# The right ear of each mouse was used for the test compound. Unless otherwise indicated each compound was adjusted to 20 mM by dilution into DMSO or DMSO/5% Pluronic F127 as indicated and 1 or 2 microliters were applied to the test ear. Thirty minutes after each compound was applied, 4 mg arachidonic acid was applied (4 μL/ear; 2 μL/side) to both ears of each mouse. Measurements of edema were taken 60 min after the application of arachidonic acid with microcalipers (Oditest, Scientific Supply and Equipment) unless otherwise indicated. The results are shown in FIG. 15 as millimeters×10^−2 measured at the thickest point of each ear. Control measurements were performed on ears that were only treated with arachidonic acid.
# Response to prednisolone (20 μL of 20 mM/ear; 10 μl/side) added 3 hrs prior 20′ to arachidonic acid or indomethacin (5 μg/ear) added 30 min prior to test compounds was determined. The results are shown in Table A, where the anti-inflammatory/inflammatory effects of 20 nanomoles/ear of the indicated compounds were tested as described in Methods. Each plus represents a change from control (arachidonic acid alone) of 2.5 mm×10^−2. Effects were compared with those of Indomethacin (400 nmols/ear).
# Acute inflammation: Membrane permeant inositol polyphosphate analogs were administered topically and tested for inhibition of inflammatory symptoms induced by arachidonic acid on the ear of Swiss Webster mice.
# [3] = test system: T84 cells; experiment: Colonic Epithelial Cell Assay (Isc across T84 monolayers, Ussing chambers); type: cell-based, human; settings: for Isc response to carbachol / Isc response to thapsigargin following carbachol: 400 μM, 30 min preincubation, T84
# Description: Cl^− secretion in colonic epithelial cells was measured as short circuit current (Isc) across T84 monolayers grown to confluence on Snap-wells (Costar) and mounted in Ussing chambers equipped with voltage clamps (Physiologic Instruments, San Diego). Data was acquired and analyzed using AAcquire and Analyze@ software (Physiologic Instruments). T84 cells (passages 18-48) were maintained as described previously in McRoberts, J. A. et al., “Cyclic AMP and Ca^2+-activated K^+ transport pathway in the apical membrane of a human colonic epithelial cell line,” J. Biol. Chem. 260:14163-14172 (1985). After […] of incubation on Snap-wells, monolayers had formed tight junctions and were preincubated with […] Bt2D-myo-Ins(3,4,5,6)P4/AM for 30-min. prior to mounting. An extracellular concentration of 200 uM corresponds to an intracellular concentration of 4 uM (Vajanaphnich, et al., “Long-term uncoupling of chloride secretion from intracellular calcium levels by Ins(3,4,5,6)P4,” Nature 371:711-714 (1994)). […]
# [4] = test system: CF Human Nasal Epithelial (CFHNE) cells; experiment: Cystic Fibrosis Human Nasal Epithelial Cell Assay (Isc, Ussing chambers); type: cell-based
# Description: CF Human Nasal Epithelial (CFHNE) Cell Isolation and Proliferation
# Nasal Polyps were surgically obtained from a CF patient at Children's Hospital (Seattle, Wash.), transported on ice in a sterile container containing a 1:1 mixture of Dulbecco's modification of minimum essential medium Eagle and Ham's F-12 nutrient medium (DMEM/F-12) (Irvine Scientific, Santa Ana, Calif.) supplemented with 100 U/mL penicillin, 0.1 mg/mL streptomycin, 10 mM HEPES, and 2 mM L-glutamine. The tissue samples were aseptically removed from the transport medium and washed (repeated 5 times) by suspending in 40 mL of Joklik's modification of minimum essential medium Eagle (JMEM) at 4° C., and centrifuging at 500 rpm. The supernatant was aspirated and discarded. The tissue was then transferred to JMEM containing 200 U/mL penicillin, 0.2 mg/mL streptomycin, 0.1 mg/mL gentamycin sulfate (Clonetics, San Diego, Calif.), and 0.1 μg/mL amphotericin-B (Clonetics), and 0.1% Protease, washed an additional two times, suspended in […] in a 10 cm tissue culture dish, and incubated at 4° C. for 24 hours. The tissue samples were then gently triturated, the connective tissue aseptically removed, and the remaining cell suspension centrifuged at 1000 rpm. The supernatant was aspirated and the pellet was resuspended in 10 mL proliferation media, consisting of Keratinocyte-Serum Free Medium (KSFM) (Gibco-BRL, Grand Island, N.Y.) containing 5 ng/ml EGF (Gibco), 50 μg/mL BPE (Gibco), 5 μg/mL insulin, 5 μg/mL transferrin, 5 μg/ml sodium selenite, 10 nM 3,3′,5-triiodo-L-thyronine, 200 nM hydrocortisone, 100 U/mL penicillin, 0.1 mg/mL streptomycin, and 2 mM L-glutamine. The cell suspension was transferred to 2.10 cm tissue culture dishes coated with 3 μg/cm^2 rat-tail collagen (Type I) (Becton-Dickinson, Bedford, Mass.), incubated at 37° C. in an humidified atmosphere of 5% CO2 and 95% air. The cells were allowed to grow for 6 days (˜70% confluence) with the media being replaced with fresh media every other day. The cells were then trypsinized using 0.025% trypsin-EDTA for 5 min. The cell suspension was collected, the trypsin deactivated with 10% Fetal Bovine Serum, and centrifuged at 1000 rpm for 5 min. The cells were then counted using an hemocytometer with a yield of 3×10^6 cells per dish. The supernatant was aspirated and the cells were resuspended in KSFM and plated at a density of 10^4 cells/cm^2.
# CFHNE Cell Ussing Chamber Preparation
# The CFHNE cells were prepared for Ussing Chamber studies using Snapwell permeable supports (0.4 μm pore size) (Corning Costar, Cambridge, Mass.) coated with 3 μg/cm^2 rat-tail collagen (type 1). Cells were plated at 9×10^3 cells/cm^2 in KSFM. After 2 days, an air-liquid interface (ALI) was initiated in DMEM/F-12 containing: 2% Fetal Clone III (Hyclone, Logan, Utah), 2.5 μg/mL insulin, 2.5 μg/mL transferrin, 2.5 μg/mL sodium selenite, 20 nM hydrocortisone, 1.5 μM epinephrine, 50 μg/mL BPE, 1 nM 3,3′,5-triiodo-L-thyronine, 3.3 nM All-trans retinoic acid, 250 nM ethanolamine, 250 nM O-phosporylethanolamine, 100 U/mL penicillin, 0.1 mg/ml streptomycin, and 2 mM L-glutamine. The CFHNE monolayers reached maximal resistance (˜200 Ω/cm^2) 5-7 days after initiation of ALI. All media/reagents, unless otherwise specified, were supplied by Sigma Chemical Co., St. Louis, Mo.
# [5] = extracellular concentration of 200 uM; cited from earlier work
# [6] = preincubation with 200 μM, CFHNE monolayers
compound,measurement,setting,value
"D-1-O-octyl-2-O-butyryl-myo-inositol 1,4,5,6-tetrakisphosphate-octakis-(propionoxymethyl)ester [INO-E3]",macroscopic negative effects,[1]; ip injections up to 50 μg/animal,No macroscopic negative effects
same,macroscopic negative effects,[1]; iv injections of 20 μg/animal,No macroscopic negative effects
same,effectiveness by route of application,"[2]; topically, intraperitoneally and orally","effective when applied topically, intraperitoneally and orally"
"CCCC12OC(C)(C)OC1C(OP(=O)(OCOC(C)=O)OCOC(C)=O)C(OP(=O)(OCOC(C)=O)OCOC(C)=O)C(OP(=O)(OCOC(C)=O)OCOC(C)=O)C2OP(=O)(OCOC(C)=O)OCOC(C)=O (racemic) [Compound B, rac-1,2-O-isopropylidene-2-C-propyl-myo-inositol 3,4,5,6-tetrakisphosphate-octakis(acetoxymethyl) ester]",Isc response to carbachol,[3],prolongs; also recorded: prolonged increase in Isc response
same,Isc response to thapsigargin following carbachol,[3],overcomes the inhibitory effect of carbachol pretreatment; also recorded: prolonged increase in Isc response
same,"Isc, acute effect","[3]; applied acutely to the apical surface of T84 monolayers, one monolayer",triggers an increase in Isc; also recorded: large and prolonged increase in Isc
same,Ear Thickness,[2],56.1 ± 2.1 mm × 10^−2
same,negative component of the ATP effect on Isc,"[4]; FIG. 11 legend: preincubation at 400 μM, CFHNE, average of duplicates",reverse the negative component of the ATP effect on Isc
same,negative phase of Isc following ATP,[4]; [6],"totally reversed the negative phase, instead causing a long term increase in Isc"
same,transient increase in Isc following ATP,[4]; [6],inhibited
"CCCC(=O)OC1C(OC(=O)CCC)C(OP(=O)(OCOC(C)=O)OCOC(C)=O)C(OP(=O)(OCOC(C)=O)OCOC(C)=O)C(OP(=O)(OCOC(C)=O)OCOC(C)=O)C1OP(=O)(OCOC(C)=O)OCOC(C)=O (centres unmarked) [Bt2D-myo-Ins(3,4,5,6)P4/AM]",intracellular concentration,[5],4 µM
"CCCOC1C(OP(=O)(OCOC(C)=O)OCOC(C)=O)C(OP(=O)(OCOC(C)=O)OCOC(C)=O)C(OP(=O)(OCOC(C)=O)OCOC(C)=O)C(OP(=O)(OCOC(C)=O)OCOC(C)=O)C1(CCC)OC(=O)CCC (racemic) [Compound A, rac-2-O-butyryl-2-C-propyl-1-O-propyl-myo-inositol 3,4,5,6-tetrakisphosphate-octakis(acetoxymethyl) ester]",Isc response to carbachol,[3],did not affect
same,Isc response to thapsigargin following carbachol,[3],partially reversed the inhibition of thapsigargin induced chloride secretion; also recorded: partially restores the Isc response to thapsigargin following carbachol
same,Ear Thickness,[2],52.5 ± 5.5 mm × 10^−2
same,Isc response to subsequent stimulation with ATP,"[4]; 95 μM, CFHNE",appeared to prolong the response to subsequent stimulation with ATP; also recorded: prolonged increase in Isc following ATP addition
same,"Isc, direct effect","[4]; 95 μM, CFHNE",little direct effect
same,"Isc, direct effect","[4]; 200 μM, added basolaterally, CFHNE (passage 3)",prolonged increase in Isc comparable in amplitude to that stimulated with ATP
